Experimental data taken from US20220281848A1, “PYRAZOLE-SUBSTITUTED PYRROLIDINONES AS HERBICIDES” (FMC Corporation, priority 2019, published 2022).

Tested on: plants
Experiment: Test D pre-emergence, other plants of Tables D1 and D3
Assay type: in vivo
Conditions: preemergent
Procedure, shortened: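 Seeds treated with herbicide safener; sown in soil; glasshouse, 16 h light, 65% humidity. Sprayed day 1 (pre) or ~day 12 (post). Spray in 0.2% v/v adjuvant. Scored 0–100 damage: 20 DAA pre, 15 d post.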

CN1CC(c2cc(Cl)n(C)n2)C(C(=O)Nc2ccc(F)c(F)c2F)C1=O (racemic) [Compound 31]
ABUTH damage to plant (100=total damage; 0=no damage) (Rates 15, 20 DAA): 0 | AMARE damage to plant (100=total damage; 0=no damage) (Rates 15, 20 DAA): 0 | BIDPI damage to plant (100=total damage; 0=no damage) (Rates 15, 20 DAA): 0 | BRAPL damage to plant (100=total damage; 0=no damage) (Rates 15, 20 DAA): 0 | CYPES damage to plant (100=total damage; 0=no damage) (Rates 15, 20 DAA): 0 | DIGSA damage to plant (100=total damage; 0=no damage) (Rates 15, 20 DAA): 0 | ECHCG damage to plant (100=total damage; 0=no damage) (Rates 15, 20 DAA): 0 | EPHHL damage to plant (100=total damage; 0=no damage) (Rates 15, 20 DAA): 0 | GLXMA damage to plant (100=total damage; 0=no damage) (Rates 15, 20 DAA): 0 | IPOHE damage to plant (100=total damage; 0=no damage) (Rates 15, 20 DAA): 0 | ORYSA damage to plant (100=total damage; 0=no damage) (Rates 15, 20 DAA): 0 | PANMI damage to plant (100=total damage; 0=no damage) (Rates 15, 20 DAA): 0 | SETFA damage to plant (100=total damage; 0=no damage) (Rates 15, 20 DAA): 0 | SORVU damage to plant (100=total damage; 0=no damage) (Rates 15, 20 DAA): 0 | ABUTH damage to plant (100=total damage; 0=no damage) (Rates 30, 20 DAA): 0 | AMARE damage to plant (100=total damage; 0=no damage) (Rates 30, 20 DAA): 0 | BIDPI damage to plant (100=total damage; 0=no damage) (Rates 30, 20 DAA): 0 | BRAPL damage to plant (100=total damage; 0=no damage) (Rates 30, 20 DAA): 10 | CYPES damage to plant (100=total damage; 0=no damage) (Rates 30, 20 DAA): 0 | DIGSA damage to plant (100=total damage; 0=no damage) (Rates 30, 20 DAA): 10 | ECHCG damage to plant (100=total damage; 0=no damage) (Rates 30, 20 DAA): 0 | EPHHL damage to plant (100=total damage; 0=no damage) (Rates 30, 20 DAA): 0 | GLXMA damage to plant (100=total damage; 0=no damage) (Rates 30, 20 DAA): 0 | IPOHE damage to plant (100=total damage; 0=no damage) (Rates 30, 20 DAA): 0 | ORYSA damage to plant (100=total damage; 0=no damage) (Rates 30, 20 DAA): 0 | PANMI damage to plant (100=total damage; 0=no damage) (Rates 30, 20 DAA): 0 | SETFA damage to plant (100=total damage; 0=no damage) (Rates 30, 20 DAA): 0 | SORVU damage to plant (100=total damage; 0=no damage) (Rates 30, 20 DAA): 0 | ABUTH damage to plant (100=total damage; 0=no damage) (Rates 60, 20 DAA): 0 | AMARE damage to plant (100=total damage; 0=no damage) (Rates 60, 20 DAA): 0 | BIDPI damage to plant (100=total damage; 0=no damage) (Rates 60, 20 DAA): 0 | BRAPL damage to plant (100=total damage; 0=no damage) (Rates 60, 20 DAA): 60 | CYPES damage to plant (100=total damage; 0=no damage) (Rates 60, 20 DAA): 0 | DIGSA damage to plant (100=total damage; 0=no damage) (Rates 60, 20 DAA): 50 | ECHCG damage to plant (100=total damage; 0=no damage) (Rates 60, 20 DAA): 30 | EPHHL damage to plant (100=total damage; 0=no damage) (Rates 60, 20 DAA): 0 | GLXMA damage to plant (100=total damage; 0=no damage) (Rates 60, 20 DAA): 0 | IPOHE damage to plant (100=total damage; 0=no damage) (Rates 60, 20 DAA): 0 | ORYSA damage to plant (100=total damage; 0=no damage) (Rates 60, 20 DAA): 0 | PANMI damage to plant (100=total damage; 0=no damage) (Rates 60, 20 DAA): 0 | SETFA damage to plant (100=total damage; 0=no damage) (Rates 60, 20 DAA): 10 | SORVU damage to plant (100=total damage; 0=no damage) (Rates 60, 20 DAA): 0 | ABUTH damage to plant (100=total damage; 0=no damage) (Rates 130, 20 DAA): 0 | AMARE damage to plant (100=total damage; 0=no damage) (Rates 130, 20 DAA): 0 | BIDPI damage to plant (100=total damage; 0=no damage) (Rates 130, 20 DAA): 0 | BRAPL damage to plant (100=total damage; 0=no damage) (Rates 130, 20 DAA): 80 | CYPES damage to plant (100=total damage; 0=no damage) (Rates 130, 20 DAA): 0 | DIGSA damage to plant (100=total damage; 0=no damage) (Rates 130, 20 DAA): 90 | ECHCG damage to plant (100=total damage; 0=no damage) (Rates 130, 20 DAA): 30 | EPHHL damage to plant (100=total damage; 0=no damage) (Rates 130, 20 DAA): 0 | GLXMA damage to plant (100=total damage; 0=no damage) (Rates 130, 20 DAA): 0 | IPOHE damage to plant (100=total damage; 0=no damage) (Rates 130, 20 DAA): 0 | ORYSA damage to plant (100=total damage; 0=no damage) (Rates 130, 20 DAA): 0 | PANMI damage to plant (100=total damage; 0=no damage) (Rates 130, 20 DAA): 0 | SETFA damage to plant (100=total damage; 0=no damage) (Rates 130, 20 DAA): 30 | SORVU damage to plant (100=total damage; 0=no damage) (Rates 130, 20 DAA): 0 | ABUTH damage to plant (100=total damage; 0=no damage) (Rates 250, 20 DAA): 0 | AMARE damage to plant (100=total damage; 0=no damage) (Rates 250, 20 DAA): 0 | BIDPI damage to plant (100=total damage; 0=no damage) (Rates 250, 20 DAA): 0 | BRAPL damage to plant (100=total damage; 0=no damage) (Rates 250, 20 DAA): 80 | CYPES damage to plant (100=total damage; 0=no damage) (Rates 250, 20 DAA): 0 | DIGSA damage to plant (100=total damage; 0=no damage) (Rates 250, 20 DAA): 90 | ECHCG damage to plant (100=total damage; 0=no damage) (Rates 250, 20 DAA): 80 | EPHHL damage to plant (100=total damage; 0=no damage) (Rates 250, 20 DAA): 0 | GLXMA damage to plant (100=total damage; 0=no damage) (Rates 250, 20 DAA): 0 | IPOHE damage to plant (100=total damage; 0=no damage) (Rates 250, 20 DAA): 0 | ORYSA damage to plant (100=total damage; 0=no damage) (Rates 250, 20 DAA): 0 | PANMI damage to plant (100=total damage; 0=no damage) (Rates 250, 20 DAA): 0 | SETFA damage to plant (100=total damage; 0=no damage) (Rates 250, 20 DAA): 20 | SORVU damage to plant (100=total damage; 0=no damage) (Rates 250, 20 DAA): 0 | ABUTH damage to plant (100=total damage; 0=no damage) (Rates 500, 20 DAA): 0 | AMARE damage to plant (100=total damage; 0=no damage) (Rates 500, 20 DAA): 0 | BIDPI damage to plant (100=total damage; 0=no damage) (Rates 500, 20 DAA): 0 | BRAPL damage to plant (100=total damage; 0=no damage) (Rates 500, 20 DAA): 90 | CYPES damage to plant (100=total damage; 0=no damage) (Rates 500, 20 DAA): 0 | DIGSA damage to plant (100=total damage; 0=no damage) (Rates 500, 20 DAA): 90 | ECHCG damage to plant (100=total damage; 0=no damage) (Rates 500, 20 DAA): 90 | EPHHL damage to plant (100=total damage; 0=no damage) (Rates 500, 20 DAA): 0 | GLXMA damage to plant (100=total damage; 0=no damage) (Rates 500, 20 DAA): 0 | IPOHE damage to plant (100=total damage; 0=no damage) (Rates 500, 20 DAA): 0 | ORYSA damage to plant (100=total damage; 0=no damage) (Rates 500, 20 DAA): 0 | PANMI damage to plant (100=total damage; 0=no damage) (Rates 500, 20 DAA): 0 | SETFA damage to plant (100=total damage; 0=no damage) (Rates 500, 20 DAA): 90 | SORVU damage to plant (100=total damage; 0=no damage) (Rates 500, 20 DAA): 0
